Results published in BigSolDB 2.1.

CCCCc1nc(Cl)c(C(=O)OCOC(=O)OC(C)C)n1Cc1ccc(-c2ccccc2-c2nn[nH]n2)cc1
solubility (mole fraction)
Details	278.15 K	283.15 K	288.15 K	293.15 K	298.15 K	303.15 K	308.15 K	313.15 K
in acetone	0.00987	0.0112	0.0132	0.0155	0.019	0.0234	0.0299	0.0364
in acetonitrile	0.00131	0.00154	0.00195	0.00247	0.00326	0.00445	0.00597	0.00816
in methanol	0.00111	0.00128	0.00156	0.00209	0.00277	0.00361	0.00508	0.00772
